Measurements as given in patent US20260327211A1, “MODULATORS OF A POTASSIUM CHANNEL AND OF TRPV1 CHANNEL AND USES THEREOF” (Bsense Bio Therapeutics Ltd., priority 2023, published 2026).

System: CHO-K1 cells
Experiment: In vitro micronucleus
Assay type: cell-based
Settings: Plate 3 without S9, 24 hours
Method: The micronucleus assay was performed according to the regulatory guidelines. In brief, CHO-K1 cells were plated at 10000 cells/well in 3 plates and incubated In CHO-K1 growth medium (containing F12K, 10% FBS and 1% PS) overnight.
As a control for the S9 treatment, plate No. 1, cells were treated with cyclophosphamide as a positive control, for 3 hours. For plate No. 2, without S9 treatment, cells were treated with mitomycin C as a positive control, compounds for 3 hours, and for plate No. 3, without S9 treatment, cells were treated with bleomycin sulfate as a positive control continuously for 24 hours.
On the following day, 6 μg/mL of cytochalasin B were added to each well and plates were further incubated overnight. In the day after medium was replaced with a combined 10 μg/mL Hoechst dye solution and 0.5 μM calcein-AM in 100 μL warm DPBS for 30 minutes and the plates were scanned using CQ1 high-content analysis system.

Bleomycin sulfate [reference compound]
Micronucleus response Absolute MEC: >28 µM | CC50 (read-out: Cytotoxicity (%) Absolute EC50): 1590 nM
